# Assays:
# Assay type in all cases: in vivo, beagle dogs
# B. burgdorferi [1] = assay: Study A: SNAP-4Dx ELISA in tick-infected dogs; settings: N=8
# Description: Three outer surface proteins (Osp) on B. burgdorferi are important for diagnosis and prevention, and are expressed by the organism in response to its local environment. […] OspF is another surface protein that is generally observed in late-stage disease. The C in […] refers to a 25-amino acid, C6 peptide in the sixth invariable region of an outer membrane lipoprotein (VIsE). Antibody against C6 is highly accurate as a serologic diagnosis of Lyme disease independent of a subject's (e.g., canine) vaccination status. Further, the generation of C6 antibodies implies an active infection with viable spirochetes. Serological methods for detecting B. burgdorfer/Lyme disease were conducted using the IDEXX qualitative SNAP-4Dx ELISA and the Quantitative C6 (Quant C6 or QC6) diagnostic kits, which are enzyme linked immunosorbent assays against the previously described 25-amino-acid C6 peptide. […]
# Twenty-three adult female beagle dogs were used in this study; all were sero-negative for Borrelia, not vaccinated with any Borrelia spp vaccines, and acclimated at the study facility for seven days prior to any study activities. […] Dogs were monitored 21-days post-challenge for pyrexia, and the entire post-challenge period for clinical signs of Lyme disease (lameness, ataxia, anorexia, lymphadenopathy and depression). […]
# B. burgdorferi [2] = assay: Study A: bacterial culture of skin biopsy samples for spirochetes
# Protocol: Twenty-three adult female beagle dogs were used in this study; all were sero-negative for Borrelia, not vaccinated with any Borrelia spp vaccines, and acclimated at the study facility for seven days prior to any study activities. The study was conducted under National Research Council guidelines (1996. Dogs were randomized to a non-infected control (n=7 dogs) group, or infected groups (n=8 dogs/region) using ticks from two regions of the USA, Region A (New England (NE), i.e., Rhode Island) and Region B (Midwest (MW), i.e., Wisconsin). Dogs were infected on Day 0 with up to 30 Ixodes scapularis ticks per dog. Tick attachment was monitored daily and after nine days, remaining ticks were harvested and all dogs were treated with two topical applications of an approved acaricide observing a 30-day interval between applications. Dogs were monitored 21-days post-challenge for pyrexia, and the entire post-challenge period for clinical signs of Lyme disease (lameness, ataxia, anorexia, lymphadenopathy and depression).
# Blood was collected from each dog weekly to Day 28, then every two-weeks for the remainder of the study (166 days). […] Two skin punch biopsies were collected near tick attachment sites from each dog every 28 days post-challenge for bacterial culture.
# On Days 83 and 97, Convenia was administered (8 mg/kg bodyweight; subcutaneous injection). Treated dogs, 8 B. burgdorferi-positive and 4 controls, were compared to untreated cohorts (8 B. burgdorferi-positive, and 3 controls). Comparisons included serology, skin culture results and joint pathology.
# B. burgdorferi [3] = assay: Study B: QC6 ELISA in tick-infected dogs; settings: 8 dogs/group
# Description: Three outer surface proteins (Osp) on B. burgdorferi are important for diagnosis and prevention, and are expressed by the organism in response to its local environment. […] OspF is another surface protein that is generally observed in late-stage disease. The C in […] refers to a 25-amino acid, C6 peptide in the sixth invariable region of an outer membrane lipoprotein (VIsE). Antibody against C6 is highly accurate as a serologic diagnosis of Lyme disease independent of a subject's (e.g., canine) vaccination status. Further, the generation of C6 antibodies implies an active infection with viable spirochetes. Serological methods for detecting B. burgdorfer/Lyme disease were conducted using the IDEXX qualitative SNAP-4Dx ELISA and the Quantitative C6 (Quant C6 or QC6) diagnostic kits, which are enzyme linked immunosorbent assays against the previously described 25-amino-acid C6 peptide. QC6 ELISA data, units/mL, are useful for guidance in initiating and evaluating response to therapy (See Levy S A, O'Connor T P, Hanscom J L, Shields P, et al. Quantitative measurement of a C6 antibody following antibiotic treatment of Borrelia burgdorferi antibody-positive, nonclinical dogs. Clin Vacc Immunol 2008; 15(1):115-119 and Littman M P, Goldstein R E, Labato M A, et al. ACVIM Small Animal Concensus Statement on Lyme Disease in Dogs: Diagnosis, Treatment and Prevention. J Vet Intern Med 2006; 20: 422-434).
# (§1) Thirty-two (18 male and 14 female) beagle dogs were sero-negative for Borrelia burgdorferi, not vaccinated with any Borrelia spp vaccines, and acclimated at the study facility for seven days. The study was conducted under National Research Council guidelines (1996). […] Field-caught Ixodes from the northeast USA were placed on the dogs without containment chambers for 10 days; after ticks fed to repletion, dogs were treated with two applications of an approved topical acaricide with a 30-day interval between applications.
# (§2) Forty days post-challenge, and prior to antibiotic treatments, blood was collected from each dog as were two skin biopsy punch samples near tick attachment sites. Blood was collected approximately monthly post-treatment. Skin biopsies were taken near the tick attachment site on Days 48/49, 118, 146, 180, and 315. Serum antibodies to Borrelia were assayed using the IDEXX SNAP-4Dx and QC6 ELISA. In cooperation with Cornell University, serum samples were analyzed using fluorescent-bead-based multiplex assays detecting antibodies against B. burgdorferi outer surface proteins OspA, OspC, and OspF. Data were expressed as median fluorescent intensities (MFI), and shown to be specific and sensitive to provide interpretative guidelines regarding infection. The skin biopsies were collected for a polymerase chain reaction (PCR; FlaB) assay and cultured for spirochete detection. At the end of the study, blood and skin biopsies were collected and synovial tissue from the joints were harvested at necropsy.
# On Day 75 and Day 89 Convenia was administered to the eight dogs in T04 (8 mg/kg bodyweight; subcutaneous injection). The other treated groups received their respective regimens daily and orally for 30 days from Days 75 to 104. […] Dogs in T01 served as infected, untreated, controls. Inter-treatment comparisons to evaluate antibiotic efficacy included clinical signs, serology, culture results and pathology.
# [4] = test system: B. burgdorferi outer surface protein OspF; assay: Study B: fluorescent-bead-based multiplex assay, antibodies against OspF; settings: for Multiplex Assay OspF: No. Dogs > Positive Threshold (# dogs > 1500): 8 dogs/group
# Protocol: as §1
# as §2, with “Data were expressed as median fluorescent intensities (MFI), and shown to be specific and sensitive to provide interpretative guidelines regarding infection.” left out
# On Day 75 and Day 89 Convenia was administered to the eight dogs in T04 (8 mg/kg bodyweight; subcutaneous injection). The other treated groups received their respective regimens daily and orally for 30 days from Days 75 to 104. […] Dogs in T01 served as infected, untreated, controls.
# [5] = prior to treatment, of eight dogs
structure (smiles),measurement,setting,value
"CO/N=C(\C(=O)N[C@@H]1C(=O)N2C(C(=O)[O-])=C([C@@H]3CCCO3)CS[C@H]12)c1csc(N)n1.[Na+] [Convenia, (6R,7R)-7-[[(2Z)-(2-amino-4-thiazolyl)(methoxyimino)acetyl]-amino]-8-oxo-3-[(2S)-tetrahydro-2-furanyl]-5-thia-1-azabicyclo[4.2.0]oct-2-ene-2-carboxylic acid, monosodium salt]",Dogs SNAP-4Dx positive for B. burgdorferi,B. burgdorferi [1]; prior to administration of Convenia on Day 83,100%
same,Number of dogs remaining SNAP-4Dx positive,"B. burgdorferi [1]; through the study (Day 166), 8 mg/kg sc Days 83 and 97",five to seven
same,Bacterial culture of skin for spirochetes,"B. burgdorferi [2]; post-treatment (Days 111 to 166), 8 mg/kg sc Days 83 and 97",all were negative on bacterial culture
same,Dogs culture-positive for spirochetes from skin,B. burgdorferi [2]; [5],88%
same,Number of dogs culture-positive for spirochetes from skin,B. burgdorferi [2]; [5],Seven
same,"Dogs Sero-converted to B. burgdorferi per QC6 ELISA (≧30 U/mL), (%)",B. burgdorferi [3]; Day 48 (pre-treatment),75.0%
same,"Number of Dogs Sero-converted to B. burgdorferi per QC6 ELISA (≧30 U/mL), No.",B. burgdorferi [3]; Day 48 (pre-treatment),6
same,"Dogs Sero-converted to B. burgdorferi per QC6 ELISA (≧30 U/mL), (%)",B. burgdorferi [3]; Day 111,75.0%
same,"Number of Dogs Sero-converted to B. burgdorferi per QC6 ELISA (≧30 U/mL), No.",B. burgdorferi [3]; Day 111,6
same,"Dogs Sero-converted to B. burgdorferi per QC6 ELISA (≧30 U/mL), (%)",B. burgdorferi [3]; Day 145,0.0%
same,"Number of Dogs Sero-converted to B. burgdorferi per QC6 ELISA (≧30 U/mL), No.",B. burgdorferi [3]; Day 145,0
same,"Dogs Sero-converted to B. burgdorferi per QC6 ELISA (≧30 U/mL), (%)",B. burgdorferi [3]; Day 179,0.0%
same,"Number of Dogs Sero-converted to B. burgdorferi per QC6 ELISA (≧30 U/mL), No.",B. burgdorferi [3]; Day 179,0
same,"Dogs Sero-converted to B. burgdorferi per QC6 ELISA (≧30 U/mL), (%)",B. burgdorferi [3]; Day 221,0.0%
same,"Number of Dogs Sero-converted to B. burgdorferi per QC6 ELISA (≧30 U/mL), No.",B. burgdorferi [3]; Day 221,0
same,"Dogs Sero-converted to B. burgdorferi per QC6 ELISA (≧30 U/mL), (%)",B. burgdorferi [3]; Day 251,0.0%
same,"Number of Dogs Sero-converted to B. burgdorferi per QC6 ELISA (≧30 U/mL), No.",B. burgdorferi [3]; Day 251,0
same,"Dogs Sero-converted to B. burgdorferi per QC6 ELISA (≧30 U/mL), (%)",B. burgdorferi [3]; Day 281,0.0%
same,"Number of Dogs Sero-converted to B. burgdorferi per QC6 ELISA (≧30 U/mL), No.",B. burgdorferi [3]; Day 281,0
same,"Dogs Sero-converted to B. burgdorferi per QC6 ELISA (≧30 U/mL), (%)",B. burgdorferi [3]; Day 314,0.0%
same,"Number of Dogs Sero-converted to B. burgdorferi per QC6 ELISA (≧30 U/mL), No.",B. burgdorferi [3]; Day 314,0
same,Multiplex Assay OspF: MFI Mean,[4]; Day 48 (pre-treatment),922.75 MFI
same,Multiplex Assay OspF: No. Dogs > Positive Threshold (# dogs > 1500),[4]; Day 48 (pre-treatment),2
same,Multiplex Assay OspF: No. Dogs > Positive Threshold (# dogs > 1500),"[4]; Day 48 (pre-treatment), monosodium salt",two
same,Multiplex Assay OspF: MFI Mean,[4]; Day 111,704.13 MFI
same,Multiplex Assay OspF: No. Dogs > Positive Threshold (# dogs > 1500),[4]; Day 111,0
same,Multiplex Assay OspF: MFI Mean,[4]; Day 145,306.75 MFI
same,Multiplex Assay OspF: No. Dogs > Positive Threshold (# dogs > 1500),[4]; Day 145,0
same,Multiplex Assay OspF: MFI Mean,[4]; Day 179,270.00 MFI
same,Multiplex Assay OspF: No. Dogs > Positive Threshold (# dogs > 1500),[4]; Day 179,0
same,Multiplex Assay OspF: MFI Mean,[4]; Day 221,227.13 MFI
same,Multiplex Assay OspF: No. Dogs > Positive Threshold (# dogs > 1500),[4]; Day 221,0
same,Multiplex Assay OspF: MFI Mean,[4]; Day 251,221.88 MFI
same,Multiplex Assay OspF: No. Dogs > Positive Threshold (# dogs > 1500),[4]; Day 251,0
same,Multiplex Assay OspF: MFI Mean,[4]; Day 281,225.63 MFI
same,Multiplex Assay OspF: No. Dogs > Positive Threshold (# dogs > 1500),[4]; Day 281,0
same,Multiplex Assay OspF: MFI Mean,[4]; Day 314,239.88 MFI
same,Multiplex Assay OspF: No. Dogs > Positive Threshold (# dogs > 1500),[4]; Day 314,0
same,Multiplex Assay OspF: MFI Mean,[4]; Day −15 (pre-infection),101.50 MFI
same,Multiplex Assay OspF: No. Dogs > Positive Threshold (# dogs > 1500),[4]; Day −15 (pre-infection),0
same,Antibody-OspF status of dogs,[4]; after Day 48,all dogs negative thereafter
